Results as given in ChEMBL document CHEMBL5154839, “Discovery of a selective and covalent small-molecule inhibitor of BFL-1 protein that induces robust apoptosis in cancer cells” (Eur J Med Chem, 2022).
The source made the active and inactive calls. The calls are words filed in the database; no cut-off is given here.

Experiments:
[1] = target: Programmed cell death protein 1/Programmed cell death 1 ligand 1 (Homo sapiens, UniProt Q15116+Q9NZQ7); assay: Inhibition of biotinylated tagged PD-1 (unknown origin)/His tagged PD-L1 (unknown origin) protein-protein interaction assessed as inhibition constant incubated for 90 mins by AlphaLISA assay; type: protein-complex assay
[2] = test system: U-937; assay: Growth inhibition of human U-937 cells incubated for 4 days by WST assay; type: functional, cell-based; conditions: U-937, 96 h
[3] = test system: U-937; assay: Induction of apoptosis in human U-937 cells assessed as phosphatidylserine level measured after 4 hrs by Annexin V staining based flow cytometry analysis; type: functional, cell-based; conditions: DDE = dose-dependent effect
[4] = target: Induced myeloid leukemia cell differentiation protein Mcl-1 (Homo sapiens, UniProt Q07820); assay: Displacement of fluorescein tagged BID BH3 peptide from human MCL-1 (172 to 327 residues) expressed in Escherichia coli BL21 (DE3) assessed as inhibition constant incubated for 1.5 hrs by fluorescence polarization-based competitive binding assay
[5] = target: T1, Bromodomain-containing protein 2 (Homo sapiens, UniProt P25440); assay: Binding affinity to recombinant human BRD2 BD2 (349-460 residues) assessed as inhibition constant by fluorescence polarization assay
[6] = test system: K562; assay: Upregulation of BFL-1protein expression in human K562 cells by Western blotting analysis; type: functional, cell-based
[7] = test system: U-937; assay: Induction of apoptosis in human U-937 cells assessed as late apoptotic cells at 40 uM measured after 4 hrs by Annexin PI staining based flow cytometry method (reference value: 1.62 %); type: functional
[8] = test system: MM1.S; assay: Growth inhibition of human MM1.S cells incubated for 4 days by WST assay; type: functional, cell-based; conditions: 96 h
[9] = target: T1, Bromodomain-containing protein 2; assay: Binding affinity to recombinant human BRD2 BD1 (72-205 residues) assessed as inhibition constant by fluorescence polarization assay
[10] = test system: Raji; assay: Growth inhibition of human Raji cells incubated for 4 days by WST assay; type: functional, cell-based; conditions: 96 h
[11] = test system: U-937; assay: Induction of apoptosis in human U-937 cells assessed as necrotic cells at 10 uM measured after 4 hrs by Annexin PI staining based flow cytometry method (reference value: 0.00 %); type: functional
[12] = test system: U-937; assay: Induction of apoptosis in human U-937 cells assessed as increase in cytochrome c level incubated for 3 hrs by immunoblotting analysis; type: functional, cell-based
[13] = target: Bcl-2-like protein 1 (Homo sapiens, UniProt Q07817); assay: Displacement of fluorescein tagged BAK peptide from N-terminal His tagged human BCL-xL (1 to 209 residues) expressed in Escherichia coli BL21 (DE3) assessed as inhibition constant incubated for 1.5 hrs by fluorescence polarization-based competitive binding assay
[14] = test system: U-937; assay: Induction of apoptosis in human U-937 cells assessed as caspase-3 cleavage measured after 24 hrs by Western blot analysis; type: functional, cell-based; conditions: DDE = dose-dependent effect
[15] = test system: U-937; assay: Induction of apoptosis in human U-937 cells overexpressing BFL-1 assessed as increase in cytochrome c level incubated for 3 hrs by immunoblotting analysis; type: functional, cell-based
[16] = target: T2, Bcl-2-related protein A1 (Homo sapiens, UniProt Q16548); assay: Displacement of fluorescein tagged BID BH3 peptide from His-tagged recombinant BFL-1 (1 to 151 residues) (unknown origin) expressed in Escherichia coli BL21 (DE3) assessed as inhibition constant incubated for 24 hrs by fluorescence polarization-based competitive binding assay
T2 sequence (Q16548 whole entry): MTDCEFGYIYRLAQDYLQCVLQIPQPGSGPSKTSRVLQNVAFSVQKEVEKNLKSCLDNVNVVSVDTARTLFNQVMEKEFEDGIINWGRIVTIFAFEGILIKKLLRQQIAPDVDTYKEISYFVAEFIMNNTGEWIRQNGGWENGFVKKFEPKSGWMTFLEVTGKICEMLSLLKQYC

[17] = test system: U-937; assay: Induction of apoptosis in human U-937 cells assessed as late apoptotic cells at 10 uM measured after 4 hrs by Annexin PI staining based flow cytometry method (reference value: 1.62 %); type: functional
[18] = target: T3, BCL2A11/BBC3 (Homo sapiens) (UniProt Q16548+Q9BXH1); assay: Inhibition of human BFL-1/PUMA protein-protein interaction in human Kasumi 1 cells assessed as decrease in PUMA protein level at 80 uM measured after 5 hrs by co-immunoprecipitation assay; type: cell-based
[19] = test system: RPMI-8226; assay: Growth inhibition of human RPMI-8226 cells incubated for 4 days by WST assay; type: functional, cell-based; conditions: RPMI-8226, 96 h
[20] = test system: RPMI-8226; assay: Upregulation of BFL-1protein expression in human RPMI-8226 cells by Western blotting analysis; type: functional, cell-based
[21] = test system: MM1.S; assay: Upregulation of BFL-1protein expression in human MM1.S cells by Western blotting analysis; type: functional, cell-based
[22] = test system: K562; assay: Growth inhibition of human K562 cells incubated for 4 days by WST assay; type: functional, cell-based; conditions: K562, 96 h
[23] = test system: U-937; assay: Upregulation of BFL-1 protein expression in human U-937 cells by Western blotting analysis; type: functional, cell-based
[24] = Displacement of fluorescein tagged BID BH3 peptide from His-tagged recombinant BFL-1 (1 to 151 residues) C55A mutant (unknown origin) expressed in Escherichia coli BL21 (DE3) assessed as inhibition constant incubated for 24 hrs by fluorescence polarization-based competitive binding assay; parameters: species or system Homo sapiens
[25] = target: Bromodomain-containing protein 3 (Homo sapiens, UniProt Q15059); assay: Binding affinity to recombinant human BRD3 BD1 (24-144 residues) assessed as inhibition constant by fluorescence polarization assay
[26] = test system: U-937; assay: Induction of apoptosis in human U-937 cells assessed as late apoptotic cells at 60 uM measured after 4 hrs by Annexin PI staining based flow cytometry method (reference value: 1.62 %); type: functional
[27] = target: T3, BCL2A11/BBC3 (Homo sapiens); assay: Inhibition of human BFL-1/PUMA protein-protein interaction in human Kasumi 1 cells assessed as increase in BFL-1 protein level at 20 to 80 uM measured after 5 hrs by co-immunoprecipitation assay; type: cell-based; conditions: dose 20-80 µM
[28] = Displacement of FAM- labeled PDI peptide from MDM4 C17S mutant (14 to 111 residues) (unknown origin) expressed in Escherichia coli BL21 (DE3) assessed as inhibition constant incubated for 1.5 hrs by fluorescence polarization-based competitive binding assay; parameters: species or system Homo sapiens
[29] = test system: U-937; assay: Induction of apoptosis in human U-937 cells assessed as late apoptotic cells at 20 uM measured after 4 hrs by Annexin PI staining based flow cytometry method (reference value: 1.62 %); type: functional
[30] = test system: HL-60; assay: Growth inhibition of human HL-60 cells incubated for 4 days by WST assay; type: functional, cell-based; conditions: HL-60, 96 h
[31] = organism: Homo sapiens; assay: Displacement of fluorescein tagged BID BH3 peptide from His-tagged recombinant BFL-1 (1 to 151 residues) C55A mutant (unknown origin) expressed in Escherichia coli BL21 (DE3) assessed as fold decrease in inhibition constant incubated for 24 hrs by fluorescence polarization-based competitive binding assay relative to wild type
[32] = test system: U-937; assay: Induction of apoptosis in human U-937 cells assessed as early apoptotic cells at 10 uM measured after 4 hrs by Annexin PI staining based flow cytometry method (reference value: 1.95 %); type: functional
[33] = test system: MV4-11; assay: Upregulation of BFL-1protein expression in human MV4-11 cells by Western blotting analysis; type: functional, cell-based
[34] = test system: Kasumi 1; assay: Growth inhibition of human Kasumi 1 cells incubated for 4 days by WST assay; type: functional, cell-based; conditions: Kasumi 1, 96 h

T3 sequence (Q9BXH1 whole entry, looked up, one chain of several): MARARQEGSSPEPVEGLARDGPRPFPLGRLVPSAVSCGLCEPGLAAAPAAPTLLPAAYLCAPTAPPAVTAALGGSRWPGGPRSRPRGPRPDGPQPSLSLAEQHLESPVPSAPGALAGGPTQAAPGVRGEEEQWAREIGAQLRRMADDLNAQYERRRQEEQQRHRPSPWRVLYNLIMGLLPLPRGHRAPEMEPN
T1 sequence (P25440 whole entry, the tested form may be a part): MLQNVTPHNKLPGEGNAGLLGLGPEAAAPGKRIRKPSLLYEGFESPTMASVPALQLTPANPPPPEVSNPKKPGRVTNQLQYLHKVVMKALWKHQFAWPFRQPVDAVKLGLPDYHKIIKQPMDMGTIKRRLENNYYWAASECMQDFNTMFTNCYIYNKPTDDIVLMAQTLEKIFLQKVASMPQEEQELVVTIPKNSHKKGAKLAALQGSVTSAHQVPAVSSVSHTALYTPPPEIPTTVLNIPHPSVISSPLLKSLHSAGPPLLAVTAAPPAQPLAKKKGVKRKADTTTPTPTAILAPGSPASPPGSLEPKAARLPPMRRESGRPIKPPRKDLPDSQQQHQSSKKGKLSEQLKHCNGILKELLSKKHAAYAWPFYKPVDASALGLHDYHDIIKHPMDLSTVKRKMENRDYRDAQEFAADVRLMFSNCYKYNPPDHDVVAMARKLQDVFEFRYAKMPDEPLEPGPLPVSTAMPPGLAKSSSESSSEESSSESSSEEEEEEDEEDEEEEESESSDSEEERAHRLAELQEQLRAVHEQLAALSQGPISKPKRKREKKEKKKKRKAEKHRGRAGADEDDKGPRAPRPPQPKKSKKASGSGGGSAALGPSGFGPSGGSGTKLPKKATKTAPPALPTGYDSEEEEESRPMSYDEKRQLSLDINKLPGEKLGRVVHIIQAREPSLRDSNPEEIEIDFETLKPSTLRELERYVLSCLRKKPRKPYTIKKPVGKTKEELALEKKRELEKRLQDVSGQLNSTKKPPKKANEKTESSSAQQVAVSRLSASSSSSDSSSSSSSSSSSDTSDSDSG
Chain of Programmed cell death protein 1/Programmed cell death 1 ligand 1 (Q15116 whole entry): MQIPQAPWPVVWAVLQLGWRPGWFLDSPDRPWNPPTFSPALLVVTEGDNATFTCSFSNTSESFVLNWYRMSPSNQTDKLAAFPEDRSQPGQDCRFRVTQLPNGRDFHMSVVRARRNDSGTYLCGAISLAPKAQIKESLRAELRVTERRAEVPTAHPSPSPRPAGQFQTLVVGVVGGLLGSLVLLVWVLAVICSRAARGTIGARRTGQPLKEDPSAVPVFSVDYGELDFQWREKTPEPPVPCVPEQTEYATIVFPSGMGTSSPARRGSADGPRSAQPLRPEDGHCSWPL
Chain of Programmed cell death protein 1/Programmed cell death 1 ligand 1 (Q9NZQ7 whole entry): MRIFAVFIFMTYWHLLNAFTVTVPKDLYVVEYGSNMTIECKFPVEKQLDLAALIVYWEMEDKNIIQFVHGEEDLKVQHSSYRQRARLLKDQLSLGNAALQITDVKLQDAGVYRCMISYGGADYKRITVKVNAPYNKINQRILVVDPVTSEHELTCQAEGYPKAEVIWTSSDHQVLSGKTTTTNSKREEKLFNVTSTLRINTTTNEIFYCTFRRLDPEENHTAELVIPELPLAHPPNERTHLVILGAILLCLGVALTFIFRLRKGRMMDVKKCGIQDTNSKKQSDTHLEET
Chain of Bcl-2-like protein 1 (Q07817 whole entry, the tested form may be a part): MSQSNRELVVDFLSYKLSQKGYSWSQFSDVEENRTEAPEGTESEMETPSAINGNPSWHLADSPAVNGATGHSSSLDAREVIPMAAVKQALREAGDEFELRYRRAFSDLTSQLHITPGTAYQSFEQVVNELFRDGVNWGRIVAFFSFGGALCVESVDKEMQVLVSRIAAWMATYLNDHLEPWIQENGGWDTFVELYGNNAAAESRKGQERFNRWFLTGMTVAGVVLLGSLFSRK
Chain of Bromodomain-containing protein 3 (Q15059 whole entry, the tested form may be a part): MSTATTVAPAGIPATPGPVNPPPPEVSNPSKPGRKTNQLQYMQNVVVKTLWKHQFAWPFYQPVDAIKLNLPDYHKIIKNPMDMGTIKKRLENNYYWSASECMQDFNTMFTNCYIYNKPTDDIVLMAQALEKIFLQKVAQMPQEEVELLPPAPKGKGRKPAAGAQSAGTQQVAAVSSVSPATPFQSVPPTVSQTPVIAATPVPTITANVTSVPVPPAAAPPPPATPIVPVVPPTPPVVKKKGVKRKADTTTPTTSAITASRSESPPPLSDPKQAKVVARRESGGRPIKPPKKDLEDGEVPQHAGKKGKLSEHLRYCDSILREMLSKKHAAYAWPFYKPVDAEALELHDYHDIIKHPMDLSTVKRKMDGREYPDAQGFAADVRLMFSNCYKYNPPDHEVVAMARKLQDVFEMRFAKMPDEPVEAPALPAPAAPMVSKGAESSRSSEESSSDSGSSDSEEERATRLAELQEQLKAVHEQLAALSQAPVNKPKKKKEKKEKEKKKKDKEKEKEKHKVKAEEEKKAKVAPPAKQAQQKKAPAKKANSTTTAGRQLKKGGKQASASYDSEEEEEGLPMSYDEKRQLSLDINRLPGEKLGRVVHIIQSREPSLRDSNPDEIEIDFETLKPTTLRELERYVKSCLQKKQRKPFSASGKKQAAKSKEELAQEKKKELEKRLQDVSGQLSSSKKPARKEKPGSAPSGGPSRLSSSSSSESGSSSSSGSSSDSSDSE
Chain of Induced myeloid leukemia cell differentiation protein Mcl-1 (Q07820 whole entry, the tested form may be a part): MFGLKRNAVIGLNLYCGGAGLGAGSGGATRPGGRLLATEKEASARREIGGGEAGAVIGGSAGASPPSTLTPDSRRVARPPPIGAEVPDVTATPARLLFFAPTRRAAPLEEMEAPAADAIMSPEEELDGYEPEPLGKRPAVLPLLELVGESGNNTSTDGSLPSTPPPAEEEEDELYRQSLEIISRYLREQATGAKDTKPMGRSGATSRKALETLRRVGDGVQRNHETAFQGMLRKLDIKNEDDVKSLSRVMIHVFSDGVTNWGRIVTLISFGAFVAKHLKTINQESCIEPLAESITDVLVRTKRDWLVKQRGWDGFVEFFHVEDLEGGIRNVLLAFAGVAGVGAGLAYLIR

## C=CC(=O)N1CCN(c2c3ccc(-c4cccc(F)c4)cc3nn2Cc2ccccc2)CC1
[1]
  Ki: > 400 µM
[2]
  IC50: 2800 nM
[3]
  Activity: Dde
[4]
  Ki: 111 µM
[5]
  Ki: > 400 µM
[6]
  Activity: Active
[7]
  Activity: 20.83%
[8]
  IC50: 6.8 µM
[9]
  Ki: > 400 µM
[10]
  IC50: 26.9 µM
[11]
  Activity: 0.16%
[12]
  Activity: Active
[13]
  Ki: > 400 µM
[14]
  Activity: Dde
[15]
  Activity: Active
[16]
  Ki: 410 nM
[17]
  Activity: 2.19%
[18]
  inhibition: Active
[19]
  IC50: 8.7 µM
[20]
  Activity: Active
[21]
  Activity: Active
[22]
  IC50: 7.7 µM
[23]
  Activity: Active
[24]
  Ki: 8.68 µM
[25]
  Ki: > 400 µM
[26]
  Activity: 21.52%
[27]
  Activity: Active
[28]
  Ki: > 400 µM
[29]
  Activity: 4.05%
[30]
  IC50: 10.7 µM
[31]
  fold change (FC): 21
[32]
  Activity: 6.03%
[33]
  Activity: Active
[34]
  IC50: 5.5 µM
